What was measured:
[1] = design: method as in earlier work; details: logP in n-octanol-water, DrugBank; cited from earlier work
[2] = RP-TLC chromatographic parameter of lipophilicity (RMW), Soczewiński–Wachtmeister extrapolation; assay type: physicochemical; design: key: RM = log((1−Rf)/Rf), extrapolated via Soczewiński–Wachtmeister equation
Text: As part of the continuation of this study, we attempted to use the experimental, i.e., chromatographic method to determine the lipophilicity parameter of five commercially available neuroleptics: fluphenazine, triflupromazine, trifluoperazine, flupentixol and zuclopenthixol. As described in the Materials and Methods Section, we successfully applied thin-layer chromatography in a reverse-phase system (RP-TLC) and various systems containing chromatographic plates: RP-2F254, RP-8F254 and RP-18F254. […] The chromatographic parameter of lipophilicity RMW obtained under these conditions, using Soczewiński-Wachtmeister's equation, is presented in Table 5. […] Sufficient linearity of these relationships was confirmed by a high correlation coefficient (r), significant p-values, a low standard error of estimate and a high Fisher F-distribution value. […] The content of organic modifier varied from 40% to 90% in 5% increments. Five microliters of each sample solution was spotted as separate spots with a 5 mm width. Plates were developed at ambient temperature (20 ± 2 °C) to a distance of 70 mm in a horizontal chamber ([…], Switzerland) and then visualized under UV light (λ = 254 nm). All measurements were performed in triplicate. The mean value of the retardation factor (Rf) of each compound was used to calculate the RM values:(1) […] The characteristic of the obtained linear plots are given in the Supplementary Materials as Tables S2-S6.

[3] = RP-2F254 plates, 1,4-dioxane–TRIS buffer (pH 7.4)
[4] = RP-2F254 plates, acetone–TRIS buffer (pH 7.4)
[5] = RP-2F254 plates, acetonitrile–TRIS buffer (pH 7.4)
[6] = RP-8F254 plates, 1,4-dioxane–TRIS buffer (pH 7.4)
[7] = RP-8F254 plates, acetone–TRIS buffer (pH 7.4)
[8] = RP-8F254 plates, acetonitrile–TRIS buffer (pH 7.4)
[9] = RP-18F254 plates, 1,4-dioxane–TRIS buffer (pH 7.4)
[10] = RP-18F254 plates, acetone–TRIS buffer (pH 7.4)
[11] = RP-18F254 plates, acetonitrile–TRIS buffer (pH 7.4)

| Structure (SMILES) | logPexp [1] | RMW [2, 3] | RMW [2, 4] | RMW [2, 5] | RMW [2, 6] | RMW [2, 7] | RMW [2, 8] | RMW [2, 9] | RMW [2, 10] | RMW [2, 11] | also measured |
| --- | --- | --- | --- | --- | --- | --- | --- | --- | --- | --- | --- |
| CN1CCN(CCCN2c3ccccc3Sc3ccc(C(F)(F)F)cc32)CC1 [Trifluoperazine, trifluoperazine] | 5.03 | 3.333 | 3.348 | −0.568 | 2.547 | 2.754 | −1.023 | 2.580 | 2.714 | −0.810 | RMW ([2]; RP-2F254 plates, 1,4-dioxane–TRIS buffer (pH 7.4), listed as trifluoperazine): 3.333±0.328; RMW ([2]; RP-2F254 plates, acetone–TRIS buffer (pH 7.4), listed as trifluoperazine): 3.348±0.250; RMW ([2]; RP-2F254 plates, acetonitrile–TRIS buffer (pH 7.4), listed as trifluoperazine): -0.568±0.088; RMW ([2]; RP-8F254 plates, 1,4-dioxane–TRIS buffer (pH 7.4), listed as trifluoperazine): 2.547±0.277; RMW ([2]; RP-8F254 plates, acetone–TRIS buffer (pH 7.4), listed as trifluoperazine): 2.754±0.209; RMW ([2]; RP-8F254 plates, acetonitrile–TRIS buffer (pH 7.4), listed as trifluoperazine): -1.023±0.082; RMW ([2]; RP-18F254 plates, 1,4-dioxane–TRIS buffer (pH 7.4), listed as trifluoperazine): 2.580±0.271; RMW ([2]; RP-18F254 plates, acetone–TRIS buffer (pH 7.4), listed as trifluoperazine): 2.714±0.200; RMW ([2]; RP-18F254 plates, acetonitrile–TRIS buffer (pH 7.4), listed as trifluoperazine): -0.810±0.074 |
| OCCN1CCN(CC/C=C2/c3ccccc3Sc3ccc(C(F)(F)F)cc32)CC1 [Flupentixol, flupentixol] | 4.51 | 2.782 | 2.829 | −0.427 | 2.363 | 2.702 | −1.165 | 2.468 | 2.762 | −1.058 | RMW ([2]; RP-2F254 plates, 1,4-dioxane–TRIS buffer (pH 7.4), listed as flupentixol): 2.782±0.094; RMW ([2]; RP-2F254 plates, acetone–TRIS buffer (pH 7.4), listed as flupentixol): 2.829±0.194; RMW ([2]; RP-2F254 plates, acetonitrile–TRIS buffer (pH 7.4), listed as flupentixol): -0.427±0.153; RMW ([2]; RP-8F254 plates, 1,4-dioxane–TRIS buffer (pH 7.4), listed as flupentixol): 2.363±0.214; RMW ([2]; RP-8F254 plates, acetone–TRIS buffer (pH 7.4), listed as flupentixol): 2.702±0.228; RMW ([2]; RP-8F254 plates, acetonitrile–TRIS buffer (pH 7.4), listed as flupentixol): -1.165±0.108; RMW ([2]; RP-18F254 plates, 1,4-dioxane–TRIS buffer (pH 7.4), listed as flupentixol): 2.468±0.246; RMW ([2]; RP-18F254 plates, acetone–TRIS buffer (pH 7.4), listed as flupentixol): 2.762±0.175; RMW ([2]; RP-18F254 plates, acetonitrile–TRIS buffer (pH 7.4), listed as flupentixol): -1.058±0.077 |
| OCCN1CCN(CCCN2c3ccccc3Sc3ccc(C(F)(F)F)cc32)CC1 [Fluphenazine, fluphenazine] | 4.36 | 2.653 | 2.834 | −0.777 | 2.340 | 2.591 | −1.230 | 2.454 | 2.702 | −0.995 | RMW ([2]; RP-2F254 plates, 1,4-dioxane–TRIS buffer (pH 7.4), listed as fluphenazine): 2.653±0.058; RMW ([2]; RP-2F254 plates, acetone–TRIS buffer (pH 7.4), listed as fluphenazine): 2.834±0.219; RMW ([2]; RP-2F254 plates, acetonitrile–TRIS buffer (pH 7.4), listed as fluphenazine): -0.777±0.074; RMW ([2]; RP-8F254 plates, 1,4-dioxane–TRIS buffer (pH 7.4), listed as fluphenazine): 2.340±0.230; RMW ([2]; RP-8F254 plates, acetone–TRIS buffer (pH 7.4), listed as fluphenazine): 2.591±0.210; RMW ([2]; RP-8F254 plates, acetonitrile–TRIS buffer (pH 7.4), listed as fluphenazine): -1.230±0.164; RMW ([2]; RP-18F254 plates, 1,4-dioxane–TRIS buffer (pH 7.4), listed as fluphenazine): 2.454±0.279; RMW ([2]; RP-18F254 plates, acetone–TRIS buffer (pH 7.4), listed as fluphenazine): 2.702±0.189; RMW ([2]; RP-18F254 plates, acetonitrile–TRIS buffer (pH 7.4), listed as fluphenazine): -0.995±0.098 |
| OCCN1CCN(CC/C=C2/c3ccccc3Sc3ccc(Cl)cc32)CC1 [Zuclopenthixol, zuclopenthixol] |  | 2.459 | 2.529 | 0.582±0.089 | 1.981 | 2.206 | −1.206 | 2.110 | 2.218 | 2.411 | RMW ([2]; RP-2F254 plates, 1,4-dioxane–TRIS buffer (pH 7.4), listed as zuclopenthixol): 2.459±0.130; RMW ([2]; RP-2F254 plates, acetone–TRIS buffer (pH 7.4), listed as zuclopenthixol): 2.529±0.252; RMW ([2]; RP-8F254 plates, 1,4-dioxane–TRIS buffer (pH 7.4), listed as zuclopenthixol): 1.981±0.189; RMW ([2]; RP-8F254 plates, acetone–TRIS buffer (pH 7.4), listed as zuclopenthixol): 2.206±0.207; RMW ([2]; RP-8F254 plates, acetonitrile–TRIS buffer (pH 7.4), listed as zuclopenthixol): -1.206±0.139; RMW ([2]; RP-18F254 plates, 1,4-dioxane–TRIS buffer (pH 7.4), listed as zuclopenthixol): 2.110±0.176; RMW ([2]; RP-18F254 plates, acetone–TRIS buffer (pH 7.4), listed as zuclopenthixol): 2.218±0.238; RMW ([2]; RP-18F254 plates, acetonitrile–TRIS buffer (pH 7.4), listed as zuclopenthixol): 2.411±0.454 |
| CN(C)CCCN1c2ccccc2Sc2ccc(C(F)(F)F)cc21 [Triflupromazine, triflupromazine] |  | 2.890 | 3.046 | −0.405 | 2.153 | 2.690 | −0.334 | 2.342 | 2.718 | −0.361 | RMW ([2]; RP-2F254 plates, 1,4-dioxane–TRIS buffer (pH 7.4), listed as triflupromazine): 2.890±0.232; RMW ([2]; RP-2F254 plates, acetone–TRIS buffer (pH 7.4), listed as triflupromazine): 3.046±0.271; RMW ([2]; RP-2F254 plates, acetonitrile–TRIS buffer (pH 7.4), listed as triflupromazine): -0.405±0.166; RMW ([2]; RP-8F254 plates, 1,4-dioxane–TRIS buffer (pH 7.4), listed as triflupromazine): 2.153±0.213; RMW ([2]; RP-8F254 plates, acetone–TRIS buffer (pH 7.4), listed as triflupromazine): 2.690±0.232; RMW ([2]; RP-8F254 plates, acetonitrile–TRIS buffer (pH 7.4), listed as triflupromazine): -0.334±0.019; RMW ([2]; RP-18F254 plates, 1,4-dioxane–TRIS buffer (pH 7.4), listed as triflupromazine): 2.342±0.261; RMW ([2]; RP-18F254 plates, acetone–TRIS buffer (pH 7.4), listed as triflupromazine): 2.718±0.168; RMW ([2]; RP-18F254 plates, acetonitrile–TRIS buffer (pH 7.4), listed as triflupromazine): -0.361±0.084 |

From PMC12472637, “Use of TLC and Computational Methods to Determine Lipophilicity Parameters of Selected Neuroleptics: Comparison of Experimental and Theoretical Studies” (Pharmaceuticals, 2025)
